43 compounds from publication PMC8942544, “Design and synthesis of benzodiazepines as brain penetrating PARP-1 inhibitors” (Journal of Enzyme Inhibition and Medicinal Chemistry, 2022) can be followed below.

Molecules are shown by their SMILES.

T1 sequence (P09874 whole entry): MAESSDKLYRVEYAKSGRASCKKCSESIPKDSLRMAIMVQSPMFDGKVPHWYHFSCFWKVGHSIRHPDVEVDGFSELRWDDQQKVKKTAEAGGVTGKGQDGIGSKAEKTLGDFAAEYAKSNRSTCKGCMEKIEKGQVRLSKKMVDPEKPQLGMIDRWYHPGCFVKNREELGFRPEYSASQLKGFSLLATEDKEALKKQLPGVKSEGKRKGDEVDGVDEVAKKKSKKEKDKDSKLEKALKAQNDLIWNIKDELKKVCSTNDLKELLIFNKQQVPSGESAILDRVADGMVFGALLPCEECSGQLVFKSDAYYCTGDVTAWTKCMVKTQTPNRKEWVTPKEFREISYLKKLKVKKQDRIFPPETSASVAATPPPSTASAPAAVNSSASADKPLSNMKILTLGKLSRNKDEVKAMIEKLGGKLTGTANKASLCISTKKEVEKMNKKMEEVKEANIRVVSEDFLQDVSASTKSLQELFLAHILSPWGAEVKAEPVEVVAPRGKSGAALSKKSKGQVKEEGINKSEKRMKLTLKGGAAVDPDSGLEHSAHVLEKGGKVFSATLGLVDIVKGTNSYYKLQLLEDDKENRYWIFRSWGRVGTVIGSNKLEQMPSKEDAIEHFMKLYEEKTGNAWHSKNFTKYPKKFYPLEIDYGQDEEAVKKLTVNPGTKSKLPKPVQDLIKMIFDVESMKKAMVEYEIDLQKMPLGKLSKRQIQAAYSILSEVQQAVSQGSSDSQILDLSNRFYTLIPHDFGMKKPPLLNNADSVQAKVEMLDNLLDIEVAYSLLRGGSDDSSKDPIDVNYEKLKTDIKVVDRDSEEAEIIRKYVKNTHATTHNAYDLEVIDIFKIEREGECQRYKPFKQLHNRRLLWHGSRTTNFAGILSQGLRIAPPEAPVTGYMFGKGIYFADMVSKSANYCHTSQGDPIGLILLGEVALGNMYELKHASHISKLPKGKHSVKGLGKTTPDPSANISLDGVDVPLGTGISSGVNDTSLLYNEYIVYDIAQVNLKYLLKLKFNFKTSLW

The test has as its target T1, PARP-1 (Homo sapiens, UniProt P09874).
T1 construct: purchased BPS Bioscience 80580
Briefly: PARP-1 enzyme inhibition assay (BPS Bioscience PARP Colorimetric Assay Kit). In kind it is biochemical. To be noted: compound concentration 50 nM; three independent tests. The protocol:
All target compounds were evaluated for PARP-1 enzyme inhibition activity at the concentration of 50 nM determined by previous pre-experiments.
The ability of the compounds to inhibit PARP-1 enzyme activity was assessed using BPS Bioscience's PARP Colorimetric Assay Kit (BPS Bioscience, Catalog # 80580). PARP-1 is known to catalyse the NAD-dependent addition of poly(ADP-ribose) to histones. The PARP-1 assay kit comes in a convenient 96-well format, with purified PARP-1 enzyme, histone mixture, activated DNA, and PARP-1 assay buffer. The key to the PARP-1 Colorimetric Activity Assay is the biotinylated substrate. With this kit, only three simple steps are required for PARP-1 reactions. First, histone proteins are coated on a 96-well plate. Next, the PARP-1 biotinylated substrate is incubated with an assay buffer that contains the PARP-1 enzyme. Finally, the plate is treated with streptavidin-HRP followed by the addition of the colorimetric HRP substrate to produce colour that can then be measured using a UV/Vis spectrophotometer microplate reader. IC50 values were calculated using GraphPad Prism5 software.
In the case of `O=C1NCCNc2ccccc21` [Compound H1], the inhibition at 0.05 µM was found to be 6.2 ± 5.2%.

Compound `O=C1NCCCc2ccccc21` [Compound H2] displayed an inhibition at 0.05 µM of 5.2 ± 3.1%.

Take `O=C1CCNc2ccccc2N1` [Compound H3]: the inhibition at 0.05 µM is 3.6 ± 2.5%.

Regarding `O=C1NCC(c2ccccc2)=Nc2ccccc21` [Compound H4, 2-Phenyl-3,4-dihydro-5H-benzo[e][1,4]diazepin-5-one], the inhibition at 0.05 µM is 28.8 ± 3.4%.

Take `Cc1ccc(C2=Nc3ccccc3C(=O)NC2)cc1` [Compound H5, 2-(p-Tolyl)-3,4-dihydro-5H-benzo[e][1,4]diazepin-5-one]: the inhibition at 0.05 µM stood at 37.1 ± 2.7%.

`COc1ccc(C2=Nc3ccccc3C(=O)NC2)cc1` [Compound H6, 2-(4-Methoxyphenyl)-3,4-dihydro-5H-benzo[e][1,4]diazepin-5-one] gave an inhibition at 0.05 µM of 31.9 ± 1.2%.

Compound `COc1cccc(C2=Nc3ccccc3C(=O)NC2)c1` [Compound H7, 2-(3-Methoxyphenyl)-3,4-dihydro-5H-benzo[e][1,4]diazepin-5-one] yielded an inhibition at 0.05 µM of 34.7 ± 2.9%.

`O=C1NCC(c2ccc(F)cc2)=Nc2ccccc21` [Compound H8, 2-(4-Fluorophenyl)-3,4-dihydro-5H-benzo[e][1,4]diazepin-5-one]: the inhibition at 0.05 µM amounted to 32.1 ± 3.6%.

Consider `O=C1NCC(c2cccc(F)c2)=Nc2ccccc21` [Compound H9, 2-(3-Fluorophenyl)-3,4-dihydro-5H-benzo[e][1,4]diazepin-5-one], for which the inhibition at 0.05 µM amounted to 36.6 ± 3%.

Compound `O=C1NCC(c2ccc(Cl)cc2)=Nc2ccccc21` [Compound H10, 2-(4-Chlorophenyl)-3,4-dihydro-5H-benzo[e][1,4]diazepin-5-one] yielded an inhibition at 0.05 µM of 33 ± 2.4%.

The compound `O=C1NCC(c2cccc(Cl)c2)=Nc2ccccc21` [Compound H11, 2-(3-Chlorophenyl)-3,4-dihydro-5H-benzo[e][1,4]diazepin-5-one] came in with an inhibition at 0.05 µM of 28.7 ± 2.6%.

For the compound `N#Cc1ccc(C2=Nc3ccccc3C(=O)NC2)cc1` [Compound H12, 4-(5-Oxo-4,5-dihydro-3H-benzo[e][1,4]diazepin-2-yl)benzonitrile], at 0.05 µM the inhibition was 15.7 ± 4.1%.

In the case of `O=C1NCC(c2ccc(O)cc2)=Nc2ccccc21` [Compound H13, 2-(4-Hydroxyphenyl)-3,4-dihydro-5H-benzo[e][1,4]diazepin-5-one], at 0.05 µM the inhibition was 37.9 ± 2.3%.

Compound `O=C1NCC(c2ccc(F)cc2F)=Nc2ccccc21` [Compound H14, 2-(2,4-Difluorophenyl)-3,4-dihydro-5H-benzo[e][1,4]diazepin-5-one] registered an inhibition at 0.05 µM of 36.1 ± 3.6%.

In turn, `O=C1NCC(c2cc(F)cc(F)c2)=Nc2ccccc21` [Compound H15, 2-(3,5-Difluorophenyl)-3,4-dihydro-5H-benzo[e][1,4]diazepin-5-one] displayed an inhibition at 0.05 µM of 36.9 ± 1.4%.

Take `COc1ccc(C2=Nc3ccccc3C(=O)NC2)cc1OC` [Compound H16, 2-(3,4-Dimethoxyphenyl)-3,4-dihydro-5H-benzo[e][1,4]diazepin-5-one]: testing at 0.05 µM gave an inhibition of 24.4 ± 3.2%.

For the compound `O=C1NCC(c2ccc(Cl)c(Cl)c2)=Nc2ccccc21` [Compound H17, 2-(3,4-Dichlorophenyl)-3,4-dihydro-5H-benzo[e][1,4]diazepin-5-one], 0.05 µM produced 34.4 ± 3.6% inhibition.

On to `O=C1NCC(c2ccc3ccccc3c2)=Nc2ccccc21` [Compound H18, 2-(Naphthalen-2-yl)-3,4-dihydro-5H-benzo[e][1,4]diazepin-5-one], for which 0.05 µM produced 35.9 ± 2.2% inhibition.

In turn, `O=C1NCC(c2ccc(Br)cc2)=Nc2ccccc21` [Compound H19, 2-(4-Bromophenyl)-3,4-dihydro-5H-benzo[e][1,4]diazepin-5-one] registered an inhibition at 0.05 µM of 38.4 ± 1.9%.

The compound `COc1ccc(C2CNC(=O)c3ccccc3N2)cc1` (stereo not shown) [Compound H20, 2-(4-Methoxyphenyl)-1,2,3,4-tetrahydro-5H-benzo[e][1,4]diazepin-5-one] yielded an inhibition at 0.05 µM of 27.9 ± 1.8%.

In turn, `COc1cccc(C2CNC(=O)c3ccccc3N2)c1` (stereo not shown) [Compound H21, 2-(3-Methoxyphenyl)-1,2,3,4-tetrahydro-5H-benzo[e][1,4]diazepin-5-one] had an inhibition at 0.05 µM of 27.3 ± 2.3%.

On to `O=C1NCC(c2ccc(F)cc2)Nc2ccccc21` (stereo not shown) [Compound H22, 2-(4-Fluorophenyl)-1,2,3,4-tetrahydro-5H-benzo[e][1,4]diazepin-5-one], for which at 0.05 µM the inhibition was 33 ± 3%.

The compound `O=C1NCC(c2cccc(F)c2)Nc2ccccc21` (stereo not shown) [Compound H23, 2-(3-Fluorophenyl)-1,2,3,4-tetrahydro-5H-benzo[e][1,4]diazepin-5-one] came in with an inhibition at 0.05 µM of 32.1 ± 1.6%.

Compound `O=C1NCC(c2ccc(F)cc2F)Nc2ccccc21` (stereo not shown) [Compound H24, 2-(2,4-Difluorophenyl)-1,2,3,4-tetrahydro-5H-benzo[e][1,4]diazepin-5-one] showed an inhibition at 0.05 µM of 34.8 ± 2.1%.

In turn, `O=C1NCC(c2cc(F)cc(F)c2)Nc2ccccc21` (stereo not shown) [Compound H25, 2-(3,5-Difluorophenyl)-1,2,3,4-tetrahydro-5H-benzo[e][1,4]diazepin-5-one] registered an inhibition at 0.05 µM of 39.2 ± 4.5%.

The compound `COc1ccc(C2CNC(=O)c3ccccc3N2)cc1OC` (stereo not shown) [Compound H26, 2-(3,4-Dimethoxyphenyl)-1,2,3,4-tetrahydro-5H-benzo[e][1,4]diazepin-5-one] registered an inhibition at 0.05 µM of 37.4 ± 3.9%.

For the compound `O=C1NCC(c2ccc(Br)cc2)Nc2ccccc21` (stereo not shown) [Compound H27, 2-(4-Bromophenyl)-1,2,3,4-tetrahydro-5H-benzo[e][1,4]diazepin-5-one], at 0.05 µM the inhibition was 43.2 ± 2.5%.

Take `CN1CC(c2ccc(Br)cc2)Nc2ccccc2C1=O` (stereo not shown) [Compound H28, 2-(4-Bromophenyl)-4-methyl-1,2,3,4-tetrahydro-5H-benzo[e][1,4]diazepin-5-one]: the inhibition at 0.05 µM is 24 ± 5.7%.

`CN1CC(c2ccc(Br)cc2)N(C)c2ccccc2C1=O` (stereo not shown) [Compound H29, 2-(4-Bromophenyl)-1,4-dimethyl-1,2,3,4-tetrahydro-5H-benzo[e][1,4]diazepin-5-one] yielded an inhibition at 0.05 µM of 22.1 ± 3.2%.

In turn, `CC1NC(=O)c2ccccc2N=C1c1ccc(Br)cc1` (stereo not shown) [Compound H30, 2-(4-Bromophenyl)-3-methyl-3,4-dihydro-5H-benzo[e][1,4]diazepin-5-one] came in with an inhibition at 0.05 µM of 39.8 ± 4.2%.

In turn, `CC1NC(=O)c2ccccc2NC1c1ccc(Br)cc1` (stereo not shown) [Compound H31, 2-(4-Bromophenyl)-3-methyl-1,2,3,4-tetrahydro-5H-benzo[e][1,4]diazepin-5-one] gave an inhibition at 0.05 µM of 28.5 ± 3.4%.

As for `O=C1NCC(c2ccc(-c3cn[nH]c3)cc2)=Nc2ccccc21` [Compound H32, 2-(4-(1H-pyrazol-4-yl)phenyl)-3,4-dihydro-5H-benzo[e][1,4]diazepin-5-one], the inhibition at 0.05 µM was found to be 48.6 ± 1.2%.

On to `Cn1cc(-c2ccc(C3=Nc4ccccc4C(=O)NC3)cc2)cn1` [Compound H33, 2-(4-(1-Methyl-1H-pyrazol-4-yl)phenyl)-3,4-dihydro-5H-benzo[e][1,4]diazepin-5-one], for which the inhibition at 0.05 µM turned out to be 46.5 ± 3.2%.

With `Cn1nccc1-c1ccc(C2=Nc3ccccc3C(=O)NC2)cc1` [Compound H35, 2-(4-(1-Methyl-1H-pyrazol-5-yl)phenyl)-3,4-dihydro-5H-benzo[e][1,4]diazepin-5-one], 0.05 µM produced 44.3 ± 6.2% inhibition.

Take `Nc1cccc(-c2ccc(C3=Nc4ccccc4C(=O)NC3)cc2)c1` [Compound H36, 2-(3'-Amino-[1,1'-biphenyl]-4-yl)-3,4-dihydro-5H-benzo[e][1,4]diazepin-5-one]: the inhibition at 0.05 µM came to 40.8 ± 4.7%.

`Nc1ccc(-c2ccc(C3=Nc4ccccc4C(=O)NC3)cc2)cc1` [Compound H37, 2-(4′-Amino-[1,1′-biphenyl]-4-yl)-3,4-dihydro-5H-benzo[e][1,4]diazepin-5-one] had an inhibition at 0.05 µM of 46.1 ± 3.9%.

Compound `Nc1ccc(-c2ccc(C3=Nc4ccccc4C(=O)NC3)cc2)cn1` [Compound H38, 2-(4-(6-Aminopyridin-3-yl)phenyl)-3,4-dihydro-5H-benzo[e][1,4]diazepin-5-one] registered an inhibition at 0.05 µM of 34.7 ± 4.2%.

In the case of `Nc1ncc(-c2ccc(C3=Nc4ccccc4C(=O)NC3)cc2)cn1` [Compound H39, 2-(4-(2-Aminopyrimidin-5-yl)phenyl)-3,4-dihydro-5H-benzo[e][1,4]diazepin-5-one], the inhibition at 0.05 µM was found to be 33.9 ± 5.3%.

The compound `COc1ncc(-c2ccc(C3=Nc4ccccc4C(=O)NC3)cc2)cc1N` [Compound H40, 2-(4-(5-Amino-6-methoxypyridin-3-yl)phenyl)-3,4-dihydro-5H-benzo[e][1,4]diazepin-5-one] showed an inhibition at 0.05 µM of 35.4 ± 2.4%.

The compound `COc1cccc(-c2ccc(C3=Nc4ccccc4C(=O)NC3)cc2)c1` [Compound H41, 2-(3′-Methoxy-[1,1′-biphenyl]-4-yl)-3,4-dihydro-5H-benzo[e][1,4]diazepin-5-one] showed an inhibition at 0.05 µM of 28.3 ± 8.8%.

In the case of `O=C1NCC(c2ccc(-c3cccc(C(F)(F)F)c3)cc2)=Nc2ccccc21` [Compound H43, 2-(3′-(Trifluoromethyl)-[1,1′-biphenyl]-4-yl)-3,4-dihydro-5H-benzo[e][1,4]diazepin-5-one], the inhibition at 0.05 µM was 41.4 ± 3.5%.

In turn, `O=C1NCC(c2ccc(-c3ccc(C(F)(F)F)cc3)cc2)=Nc2ccccc21` [Compound H44, 2-(4′-(Trifluoromethyl)-[1,1′-biphenyl]-4-yl)-3,4-dihydro-5H-benzo[e][1,4]diazepin-5-one] came in with an inhibition at 0.05 µM of 45.1 ± 5.2%.

Take `CN1CC=C(c2ccc(C3=Nc4ccccc4C(=O)NC3)cc2)CC1` [Compound H45, 2-(4-(1-Methyl-1,2,3,6-tetrahydropyridin-4-yl)phenyl)-3,4-dihydro-5H-benzo[e][1,4]diazepin-5-one]: the inhibition at 0.05 µM amounted to 42.5 ± 6%.
